Data from US10500224B2, “Mutual prodrug comprising short chain fatty acids and zebularine or 1'-cyano-cytarabine for cancer treatment” (KAINOS MEDICINE, INC., priority 2013, dated 2019).
pIC50: −log10 of the molar value.

Key:
MOLT-4 xenograft = assay: Tumor growth inhibition of Compounds 22 and 23 in MOLT-4 xenograft; format: in vivo, mice
[1] = Pharmacokinetics of Compounds 16, 22 and 23; format: in vivo, SCID/mice; conditions: SCID, mouse, plasma
Protocol: Pharmacokinetics of Compound 16 (Comparative example) prepared in step 3 of Example 2, and mutual prodrugs of Compounds 22 and 23 prepared in Example 3 and 4, respectively, were evaluated in SCID/mice following oral (PO) and intravenous (IV) administration according to the route/dose as shown in Table 4.
Blood samples were collected over 24 hrs, and plasma samples were prepared. Plasma concentrations of the test compounds were analyzed by LC/MS/MS. The maximum plasma concentration (Cmax), exposure (AUC), bioavailability (F %), half-life (T1/2), clearance (CL), volume of distribution (Vss), time when the maximal serum concentration of compound is achieved (Tmax) and mean residence time (MRT) were calculated as were in Test Example 3.

[2] = tested on: HL-60 human leukemia xenograft; assay: Tumor growth inhibition of IP-administered Compound 12 in HL-60 human leukemia xenograft; format: in vivo, NOD/SCID female mice
Protocol: Tumor growth inhibition activities of IP-administered Ara-C and Compound 12 were compared in HL-60 human leukemia xenograft.
NOD/SCID female mice of 6-8 weeks age and weighing approximately 18 to 22 g, were used for tumor inoculation. Each mouse was inoculated subcutaneously at the right flank with HL-60 tumor cells (1×10^7 cells) in mixture of 100 μl of PBS and 100 of μl Matrigel™ for tumor development. Eight mice were used for each group (n=8/group). The amounts of treated compounds are represented in milligram (mg) of compound per kilogram (kg) of animal body weight (mg/kg, mpk). Administration route of all test compounds was through IP injection. […] The overall administration schedule was 2 cycles of compound treatment for 5 days, followed by 2 days of non-treatment. Tumor sizes were measured using a caliper, once every 4 days, and the tumor volume was expressed in mm^3 using Equation 1.
The tumor volume (mm^3) and body weight (g) results of five groups are shown in FIGS. 5A and 5B, respectively.

[3] = tested on: HL-60 human leukemia xenograft; assay: Efficacy of PO-administered Compound 12 in HL-60 human leukemia xenograft; format: in vivo, NOD/SCID female mice; conditions: 5 d ON/2 d Off × 2
Protocol: Tumor growth inhibition (TGI) activities of IP-administered Ara-C, and PO-administered Compound 12 were compared in HL-60 human leukemia xenografts.
NOD/SCID female mice of 6-8 weeks age and weighing approximately 18 to 22 g, were used for tumor inoculation. Each mouse was inoculated subcutaneously at the right flank with HL-60 cancer cells (1×10^7 cells) in mixture of 100 μl of PBS and 100 μl of Matrigel™ for tumor development. Eight mice were used for each group (n=8/group). The amounts of treated compounds are represented in milligram (mg) of compound per kilogram (kg) of animal body weight (mg/kg, mpk). Administration route of the test compound was either intraperitoneal (IP) injection or peros (PO, oral) injection. […] The overall administration schedule was 2 cycles of treatment for 5 days (5 d ON), followed by 2 days of non-treatment (2 d OFF). Tumor sizes were measured using a caliper, once every 4 days, and the tumor volume was expressed in mm^3 using Equation 1: V=0.5a×b^2 [Equation 1]
Wherein, a and b are the long and short diameters of the tumor, respectively.
The tumor volume (mm^3) and body weight (g) results of the three groups are shown in FIGS. 4A and 4B, respectively.

[4] = tested on: MV-4-11 (human biphenotypic B myelomonocytic leukemia); assay: Anti-proliferative activity test (CellTiter-Glo), MV-4-11; format: cell-based; conditions: MV-4-11, hematological
Protocol: (§1) Six hundred cells in 90 media were plated per well in duplicates in a 96-well plate. Cells were incubated in a humidified incubator at 37° C. with 5% CO2 during the assay. DMSO was added to the test compounds with the final DMSO concentration being 0.1% [v/v] of the culture. 100 μl of CellTiter-Glo® was added to the equal volume of cultured cells to read luminescence in EnVision Multi Label Reader.

[5] = tested on: HL-60 (human acute promyelocytic leukemia); assay: Anti-proliferative activity test (CellTiter-Glo), HL-60; format: cell-based; conditions: HL-60, hematological
Protocol: as §1

[6] = tested on: HCT 116 (human colorectal carcinoma); assay: Anti-proliferative activity test (CellTiter-Glo), HCT 116; format: cell-based; conditions: HCT 116, colon cancer
Protocol: as §1

[7] = Mouse pharmacokinetics of Compound 12; format: in vivo, ICR mice; conditions: ICR, plasma, 10 mg/kg
Protocol: (§2) Pharmacokinetics of Compound 12 prepared in Example 1 were evaluated in ICR mice and SD rats following intravenous (IV) administration at 10 mg/kg and peroral (PO) administration at 10 mg/kg dose level, respectively.
(§3) For serum compound analysis, blood samples were collected by cardiac puncture over 24 hr time course. 20 μl of spiked plasma was added into 96 well plate, adding ten volumes of internal standard (IS) in acetonitrile (ACN) to precipitate proteins, mixed fully, centrifuged for 10 min at 4,000 rpm. 150 μl of supernatant was transferred to another pre-labeled 96 well plate, mixed with 150 μl of water, then injected 5 μl or 10 μl into the liquid chromatography-mass spectrometry (LC-MS) system under the following conditions:
(§4) Column: API-4000+Waters UPLC (TCLM08);
(§5) Lower limit of quantification (LLOQ) was at 1 ng/mL. Pharmacokinetic parameters of half-life (T1/2), clearance (CL), maximum plasma concentration (Cmax), time when the maximal serum concentration of compound is achieved (Tmax) and bioavailability (F %), exposure (AUC) and volume of distribution (Vss) of the compound were calculated using Phoenix WinNonlin 6.3 (non-compartmental model).

[8] = tested on: MOLT-4 (human acute lymphoblastic leukemia); assay: Anti-proliferative activity test (CellTiter-Glo), MOLT-4; format: cell-based; conditions: MOLT-4, hematological
Protocol: as §1

[9] = tested on: Hep G2 (human hepatocellular carcinoma); assay: Anti-proliferative activity test (CellTiter-Glo), Hep G2; format: cell-based; conditions: Hep G2, liver cancer
Protocol: as §1

[10] = Rat pharmacokinetics of Compound 12; format: in vivo, SD rats; conditions: SD, plasma, 10 mg/kg
Protocol: as §2, §3, §4, §5

[11] = target: T1, recombinant human cytidine deaminase (CDA) (Homo sapiens, UniProt P32320); assay: Cytidine deaminase (CDA) assay; format: biochemical
T1 construct: His6; host or cells: E. coli
T1 sequence (P32320 whole entry): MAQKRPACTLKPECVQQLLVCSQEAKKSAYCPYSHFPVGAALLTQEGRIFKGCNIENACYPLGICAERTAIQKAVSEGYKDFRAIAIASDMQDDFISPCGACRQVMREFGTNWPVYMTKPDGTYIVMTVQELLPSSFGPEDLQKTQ

[12] = 150 mpk, 5 d ON/2 d OFF × 2, FIG. 6

AUC ([1]; 75 mg/kg, PO/75 mpk)	Cmax ([1]; 75 mg/kg, PO/75 mpk)	AUC ([1]; 150 mg/kg, PO/150 mpk)	Cmax ([1]; 150 mg/kg, PO/150 mpk)	MRT ([1]; 150 mg/kg, PO/150 mpk)	Tmax ([1]; 150 mg/kg, PO/150 mpk)	bioavailability ([1]; 150 mg/kg, PO/150 mpk)	half-life ([1]; 150 mg/kg, PO/150 mpk)	pIC50 ([4]; Homo sapiens, MV4-11)	pIC50 ([5]; Homo sapiens)	pIC50 ([6]; Homo sapiens)	pIC50 ([8]; Homo sapiens)	pIC50 ([9]; Homo sapiens, HepG2)	Structure (SMILES)	TGI (MOLT-4 xenograft; [12])	TGI (%) ([2]; 60 mpk)	other results
1800 ng·h/mL	5.3 µM	6500 ng·h/mL	30.7 µM	1.3 h	0.5 h	16%	4.9 h						CC(C)C(=O)OC[C@H]1O[C@@H](n2cccnc2=O)[C@H](OC(=O)C(C)C)[C@@H]1OC(=O)C(C)C [Compound 23, (2R,3R,4R,5R)-2-((isobutyryloxy)methyl)-5-(2-oxopyrimidin-1(2H)-yl)tetrahydrofuran-3,4-diyl bis(2-methylpropanoate)]	40%		
								6.89	5.30	6.66	5.94	6.25	CCCC(=O)OC[C@H]1O[C@@](C#N)(n2ccc(N)nc2=O)[C@@H](O)[C@@H]1O [Compound 12, ((2R,3S,4S,5R)-5-(4-amino-2-oxopyrimidin-1(2H)-yl)-5-cyano-3,4-dihydroxytetrahydrofuran-2-yl)methyl Butyrate]		59%	TGI (%) ([2]; 20 mpk): 36%; TGI (%) ([2]; 40 mpk): 46%; % BW change ([3]; 60 mpk, PO): −0.9%; % TGI ([3]; 60 mpk, PO): 50%; clearance ([7]; IV): 21.6 mL/min/kg; half-life ([7]; IV): 3.1 h; bioavailability ([7]; PO): 62%; half-life ([7]; PO): 4.6 h; clearance ([10]; IV): 11.4 mL/min/kg; half-life ([10]; IV): 3.1 h; bioavailability ([10]; PO): 48.8%; half-life ([10]; PO): 2.5 h
								5.51	6.20	6.54	7.70	5.72	Nc1ccn([C@@H]2O[C@H](CO)[C@@H](O)[C@@H]2O)c(=O)n1 [Ara-C, cytarabine]		60%	% BW change ([3]; 40 mpk, IP): −6.2%; % TGI ([3]; 40 mpk, IP): 46%

More lines, now with the values behind:

Structure (SMILES)	AUC ([1]; 75 mg/kg, PO/75 mpk)	Cmax ([1]; 75 mg/kg, PO/75 mpk)	AUC ([1]; 150 mg/kg, PO/150 mpk)	Cmax ([1]; 150 mg/kg, PO/150 mpk)	MRT ([1]; 150 mg/kg, PO/150 mpk)	Tmax ([1]; 150 mg/kg, PO/150 mpk)	bioavailability ([1]; 150 mg/kg, PO/150 mpk)	half-life ([1]; 150 mg/kg, PO/150 mpk)	pIC50 ([4]; Homo sapiens, MV4-11)	pIC50 ([5]; Homo sapiens)	pIC50 ([6]; Homo sapiens)	pIC50 ([8]; Homo sapiens)	pIC50 ([9]; Homo sapiens, HepG2)	TGI (MOLT-4 xenograft; [12])	TGI (%) ([2]; 60 mpk)	other results
N#C[C@@]1(n2ccc(N)nc2=O)O[C@H](CO)[C@@H](O)[C@@H]1O [Compound 11]																susceptibility to deamination by CDA [11]: resistant to deamination by CDA; Relative rxn velocity ([11]; 0.01 mM substrate, 25° C., OD282, relative to cytidine): <0.01; pIC50 [4]: 5.30; pIC50 [5]: 5.62; pIC50 [6]: 6.02; pIC50 [8]: 5.97; pIC50 [9]: 5.22
O=c1ncccn1[C@@H]1O[C@H](CO)[C@@H](O)[C@H]1O [Compound 16, 1-((2R,3R,4S,5R)-3,4-dihydroxy-5-(hydroxymethyl)tetrahydrofuran-2-yl)pyrimidin-2(1H)-one, reference compound]																TGI (MOLT-4 xenograft; zebularine, dose not stated, FIG. 6): 10%; AUC ([1]; 100 mg/kg, IV/100 mpk): 54600 ng·h/mL; clearance ([1]; 100 mg/kg, IV/100 mpk): 30.2 mL/min/kg; half-life ([1]; 100 mg/kg, IV/100 mpk): 2.03 h; Vd ([1]; 100 mg/kg, IV/100 mpk, read-out: Vss): 0.91 L/kg; AUC ([1]; 500 mg/kg, PO/500 mpk): 20900 ng·h/mL; Cmax ([1]; 500 mg/kg, PO/500 mpk): 22.3 µM; bioavailability ([1]; 500 mg/kg, PO/500 mpk): 8.4%; half-life ([1]; 500 mg/kg, PO/500 mpk): 2.44 h
CCCC(=O)OC[C@H]1O[C@@H](n2cccnc2=O)[C@H](OC(=O)CCC)[C@@H]1OC(=O)CCC [Compound 22, (2R,3R,4R,5R)-2-((butyryloxy)methyl)-5-(2-oxopyrimidin-1(2H)-yl)tetrahydrofuran-3,4-diyl Dibutyrate]	500 ng·h/mL	0.88 µM	1100 ng·h/mL	4.4 µM	1.2 h	0.5 h	2.7%	1.6 h						40%		
